Entries after “also recorded” stand apart in the source; their conditions may differ.
Assays:
[1] = target: T1, TrxR (Homo sapiens, UniProt Q16881); assay: CETSA and ITDR assay, TrxR; assay type: binding; details: HepG2 proteins, 8 µM, ITDR at 78 °C
T1 construct: endogenous in cells; host or cells: HepG2
T1 sequence (Q16881 151-649 limits assumed): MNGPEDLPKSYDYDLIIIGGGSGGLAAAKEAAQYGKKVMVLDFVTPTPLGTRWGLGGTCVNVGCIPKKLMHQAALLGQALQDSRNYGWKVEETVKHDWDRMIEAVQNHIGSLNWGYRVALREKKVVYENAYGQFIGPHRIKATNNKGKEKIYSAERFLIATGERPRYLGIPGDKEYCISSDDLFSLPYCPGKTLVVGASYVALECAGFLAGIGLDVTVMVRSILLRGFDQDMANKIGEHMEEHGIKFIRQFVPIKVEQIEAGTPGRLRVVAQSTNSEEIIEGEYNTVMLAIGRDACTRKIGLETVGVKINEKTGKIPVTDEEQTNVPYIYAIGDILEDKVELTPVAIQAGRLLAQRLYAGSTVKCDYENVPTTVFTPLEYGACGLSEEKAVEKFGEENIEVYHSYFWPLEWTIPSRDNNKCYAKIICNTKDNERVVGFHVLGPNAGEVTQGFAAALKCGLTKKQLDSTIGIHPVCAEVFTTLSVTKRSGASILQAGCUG
Protocol: The treated HepG2 cells in 10 cm culture dishes were collected and washed with PBS. The collected cells were repeatedly frozen and thawed for 3 times by liquid nitrogen and 37 °C water bath. Then, proteins were isolated by centrifugation. The isolated proteins were divided into different tubes and incubated with same concentration of 6d at different temperature. Western blot was applied for CETSA by analyzing the band intensity of different temperature groups.
The temperature, which results in significant band differences between 6d and control group, was selected for ITDR assay. The isolated proteins were divided into different tubes and incubated with different concentration of 6d at same temperature. The binding between 6d and target protein was assessed by analyzing the band intensity of different concentration groups.

[2] = system: HepG2 cells; assay: DAMPs / ICD effect (CRT, HMGB1, ATP release); assay type: cell-based, human
Protocol: 6‐well plate was applied to incubate 2 × 10^5 HepG2 cells. […] After treatment, the liquid was collected for extracellular ATP release assay by ATP Assay kit.
(§1) HepG2 cells were incubated in 6 cm culture dishes and treated with different complexes. The treated cells were lysed with lysis buffer (RIPA:PMSF:phosphatase inhibitor:protease inhibitor = 100:1:1:1). The lysed cells were further broken by sonication, and proteins were isolated by centrifugation. The protein concentrations were detected by BCA assay. 10% SDS PAGE gel was usually applied to separate the different kDa of proteins, and more than 200 kDa of proteins were separated using 8% SDS PAGE gel. After seperation, proteins were transferred onto polyvinylidene difluoride (PVDF) membranes. The target proteins were labeled by various specific primary antibodies at 4 °C overnight. Then, the membranes were treated with anti‐rabbit or anti‐mouse secondary antibody for 2 h. Tris buffered saline with tween 20 (TBST) was applied to wash the membranes after each operation above. The target proteins’ bands were detected by the enhanced chemiluminescence (ECL) procedure.
(§2) 5 × 10^4 HepG2 cells were treated with complexes in 24‐well plates for 24 h. Subsequently, cells were fixed with 4% paraformaldehyde. Various specific antibodies were added for incubation at 4 °C overnight after cells were permeabilized with Triton X‐100 (except for membrane proteins) and blocked with BSA. Then, the cells were incubated with fluorescently‐labeled secondary antibodies in darkness for 2 h. After that, DAPI was added to stain nuclear in darkness. PBS was applied for washing after each operation above (Tris buffered saline (TBS) was applied for washing if phosphorylated protein was analyzed). The cell images were captured by the fluorescence microscopy.

[3] = system: PD-L1; assay: PD-L1 expression in HepG2 (western blot, immunofluorescence, flow cytometry); assay type: cell-based, human; details: HepG2, 24 h
Protocol: as §1, §2
4 × 10^5 HepG2 cells were incubated in 6‐well plates, and complexes were added in the wells. The cells were collected after incubation, and the treated cells were labeled with probes or fluorescently‐labeled antibodies. A flow cytometer was applied to analyze the labeled cells.

[4] = Stability analysis by 1H NMR; assay type: physicochemical
Protocol: 5 mM of complex 6d was incubated with DMSO‐d6 or the mixed solution (DMSO‐d6 /D2O = 9:1) or the same mixed solution with 5 mM of GSH for different times (0 – 72 h), and the ^1H NMR spectra were acquired. The stability of AF was determined by the same method.

[5] = mouse
[6] = In vivo tolerability (body weight, survival, organ H&E)
Protocol: All mice were 6–8 weeks old males and procured from Hangzhou Medical College, located in Hangzhou, China. […] 2 × 10^6 Hepa1‐6 cells in 100 µL DMEM were subcutaneously seeded in underarms of C57BL/6 mice. […] Meanwhile, the mice weights and tumor volume were recorded, and the calculation formula of tumor volume was Volume = Width^2 × Length/2. After 13 days, all mice were sacrificed for collection of tumors, hearts, livers, spleens, lungs and kidneys. Collagenase IV (1 mg mL^−1) and DNase I (1 µg mL^−1) were applied to digest a part of the tumor tissue into cell suspension, and lysis buffer was used to remove red blood cells. The prepared cells above were stained with antibodies (anti‐CD3e‐FITC, and anti‐CD8a‐PE; anti‐CD11c‐APC, anti‐CD80‐PE, and anti‐CD86‐FITC; anti‐CD45‐Percp, anti‐CD11b‐APC, and anti‐Ly‐6G/Ly‐6C(Gr‐1)‐FITC; anti‐CD11b‐APC, anti‐CD206‐PE, and CD86‐FITC). CD3^+CD8^+ T cells, CD80^+CD86^+ DCs, CD11b^+Gr‐1^+ MDSCs, CD206^−CD86^+ M1‐type macrophages and CD206^+CD86^− M2‐type macrophages were analyzed by flow cytometry. Then, another part of tumor tissues were fixed with 4% paraformaldehyde, embedded in paraffin, cut into slices and stained with antibodies for immunofluorescence and immunohistochemistry analysis. H&E stain assays were applied for all tissue samples.

In the case of `CCn1ccn(CCCCCOc2ccc([C@@H]3COc4c(ccc5c4C=CC(C)(C)O5)C3)c(OCCCCCn3ccn(CC)[c]3=[Au][Br])c2)[c]1=[Au][Br]` [6d], the “binding to TrxR (CETSA, ITDR)” value [1] is reported as “significant binding”, the “time required for ATP release” value ([2]; HepG2, 8 µM, ATP assay kit) is reported as 48 h and the “CRT expression (western blot)” value ([2]; HepG2, 24 h) is reported as “CRT upregulation”. The “HMGB1 expression (western blot)” value ([2]; HepG2, 24 h) was “HMGB1 downregulation”, the “PD-L1 expression (western blot)” value [3] was “downregulated; also recorded: significantly inhibited” and the “PD-L1 expression on the membrane surface” value ([3]; immunofluorescence and flow cytometry) was “reduced”. The “time after which 1H NMR spectra began to change / showed new peaks” value ([4]; 5 mM complex, DMSO-d6/D2O 9:1 containing GSH (5 mM)) was 12 h, the “stability by 1H NMR” value ([4]; DMSO-d6, over 72 h) was “remained stable” and the “stability by 1H NMR” value ([4]; DMSO-d6/D2O (v1/v2 = 9:1), over 72 h) was “remained stable”. For the same compound, the “metabolic stability in whole blood” value ([5]; 2 h) was “high metabolic stability”, the T1/2 ([5]; blood) was “∞” and the “Percent Remaining (%) (Mean, n=2) 0 min” value ([5]; blood, 0 h) was 100%. The “Percent Remaining (%) (Mean, n=2) 5 min” value ([5]; blood, 5 min) was 98.8%, the “Percent Remaining (%) (Mean, n=2) 15 min” value ([5]; blood, 0.25 h) was 107% and the “Percent Remaining (%) (Mean, n=2) 30 min” value ([5]; blood, 0.5 h) was 103%. For the same compound, the “Percent Remaining (%) (Mean, n=2) 60 min” value ([5]; blood, 1 h) was 103%, the “Percent Remaining (%) (Mean, n=2) 120 min” value ([5]; blood, 2 h) was 108% and the “effect on mice body weight” value ([6]; 6d and OXA 5 mg kg^−1, GLA 10 mg kg^−1, i.p. every two days, OXA after nine days) was “no significant effect”. The “organ tissue damage (H&E staining)” value ([6]; heart, liver, spleen, lung, kidney, day 13) was “did not cause noticeable damage to organ tissues”.

From publication PMC12591170, “Glabridin‐Gold(I) Complex as a Novel Immunomodulatory Agent Targeting TrxR and MAPK Pathways for Synergistic Enhancement of Antitumor Immunity” (Advanced Science, 2025)
